The target of experiment [1] is GOX (Aspergillus niger, UniProt P13006). Put plainly: Glucose oxidase (GOX) activity, spectrophotometric assay. Particulars: reference = no potentiator candidate. Type of experiment: biochemical. Here is the method: The natural enzyme GOX is an oxidoreductase that catalyses the oxidation of glucose to gluconic acid and hydrogen peroxide (H2O2) in the presence of water and air. To measure the enzymatic activity of GOX, a standard spectrophotometric assay is performed. In brief, a second oxidoreductase enzyme, peroxidase, and a chromogenic oxygen acceptor, o-dianisidine, are added to the former reaction mix (GOX+glucose+water+air) so that the formation of a coloured compound is achieved that can in turn be measured by spectrophotometry. GOX was tested in 4 different concentrations, i.e., 100, 50, 10 and 1 mg/ml. Each reaction mixture was tested in duplo. In the event GOX activity was evaluated in the presence of a potentiator candidate (=a molecule that might be able to augment the enzymatic activity of GOX), the latter was added in a low and high concentration ranging from 100 to 0.1 mg/ml. The blank consisted of the reaction mix in which the enzymes were absent. After mixing all reaction elements, absorbance was immediately measured with a plate reader (Spectramax ID3, Molecular Devices) every minute for 5 minutes at 35° C. For each combination evaluated, this test was repeated at least 2 times. Results were further analysed in MS Excel and expressed as U/g. Mean blank-corrected data±SD were plotted. Statistical significance compared to the combination without potentiator candidate (reference) was calculated using students' t-tests. Significance is achieved when the obtained p-value is lower than 0,05. Significance levels were defined as p<0.05=*; p<0.01=** and p<0.001=***.
Sequence of GOX (P13006 17-605): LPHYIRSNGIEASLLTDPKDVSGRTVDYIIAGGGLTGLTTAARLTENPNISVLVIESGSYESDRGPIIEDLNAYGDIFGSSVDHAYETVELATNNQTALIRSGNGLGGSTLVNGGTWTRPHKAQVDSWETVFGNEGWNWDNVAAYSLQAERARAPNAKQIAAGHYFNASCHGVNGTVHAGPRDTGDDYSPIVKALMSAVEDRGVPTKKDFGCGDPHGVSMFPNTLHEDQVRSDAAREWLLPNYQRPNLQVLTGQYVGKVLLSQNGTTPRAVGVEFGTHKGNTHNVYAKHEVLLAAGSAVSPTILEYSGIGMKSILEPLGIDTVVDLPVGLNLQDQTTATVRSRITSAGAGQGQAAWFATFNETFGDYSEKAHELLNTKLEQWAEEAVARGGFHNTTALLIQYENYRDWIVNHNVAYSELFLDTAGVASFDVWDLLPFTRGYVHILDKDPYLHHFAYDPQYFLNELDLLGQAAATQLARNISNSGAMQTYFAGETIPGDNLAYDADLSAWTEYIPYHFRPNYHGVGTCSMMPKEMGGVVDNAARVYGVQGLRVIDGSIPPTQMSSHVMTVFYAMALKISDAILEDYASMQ

For experiment [2], the system named is IL-6. In words: IL-6 secretion by THP-1-derived macrophages, ELISA. Type of experiment: cell-based. As to conditions: 24 h. How it is done:
First, the effect on the secretion of these mediators by macrophages was evaluated. Secondly, the direct neutralization of already secreted mediators was evaluated. Both were measured by the state-of-the-art ELISA technique. First, the secretion of the pro-inflammatory mediator representatives IL-6, TNFa and MMP9 in cell culture supernatants by THP-1 (a monocytic cell line) after its differentiation into macrophages were measured. In brief, THP-1 cells were seeded at a density of 3×10^5 cells/cm^2 in a 6-well plate in the presence of 160 nM of phorbol-12-myristate-13-acetate (PMA) to induce macrophage differentiation. Differentiation was further conducted for 48 h. […] Supernatants were collected and centrifuged at 150 g for 5 min to remove cell debris and were kept at −20° C. before being processed for ELISA. IL-6, TNFa and MMP9 ELISA kits were purchased from BioTechne and the experiment was performed according to manufacturer's instructions. Briefly, 96-well plates were coated with capture antibodies overnight at room temperature. […] After several washing steps, the corresponding detection antibody, which is coupled to biotin, was incubated for 2 h. […] The reaction was stopped by the addition of sulphuric acid and absorbance at 450 nm was read with a plate reader. Absorbance is proportional to the concentration of analyte present in the medium, which was calculated based on a standard curve realized with recombinant IL-6, TNFa and MMP9.

The subject of experiment [3] is IL-6. Put plainly: Direct neutralization of secreted IL-6 in cell culture supernatants, ELISA. Type of experiment: biochemical. Particulars: isoleucine 0.05%; 3 h. Here is the method:
(§1) First, the effect on the secretion of these mediators by macrophages was evaluated. Secondly, the direct neutralization of already secreted mediators was evaluated. Both were measured by the state-of-the-art ELISA technique. Secondly, the direct neutralization of secreted pro-inflammatory mediator representatives IL-6, TNFa and MMP9 was measured in parallel. In brief, cell culture supernatants were collected after 48 h of macrophage differentiation and were centrifuged at 150 g for 5 min to remove cell debris. […] Treated supernatants were kept frozen until being processed for ELISA. IL-6, TNFa and MMP9 ELISA kits were purchased from BioTechne and the experiment was performed according to manufacturer's instructions. Briefly, 96-well plates were coated with capture antibodies overnight at room temperature. […] After several washing steps, the corresponding detection antibody, which is coupled to biotin, was incubated for 2 h. […] The reaction was stopped by the addition of sulphuric acid and absorbance at 450 nm was read with a plate reader. Absorbance is proportional to the concentration of analyte present in the medium, which was calculated based on a standard curve realized with recombinant IL-6, TNFa and MMP9.
On the technique in general: ELISA stands for enzyme-linked immunosorbent assay.

The subject of experiment [4] is MMP9. Put plainly: MMP9 secretion by THP-1-derived macrophages, ELISA. The format is cell-based. As to conditions: 24 h. Here is the method: First, the effect on the secretion of these mediators by macrophages was evaluated. Secondly, the direct neutralization of already secreted mediators was evaluated. Both were measured by the state-of-the-art ELISA technique. First, the secretion of the pro-inflammatory mediator representatives IL-6, TNFa and MMP9 in cell culture supernatants by THP-1 (a monocytic cell line) after its differentiation into macrophages were measured. In brief, THP-1 cells were seeded at a density of 3×10^5 cells/cm^2 in a 6-well plate in the presence of 160 nM of phorbol-12-myristate-13-acetate (PMA) to induce macrophage differentiation. Differentiation was further conducted for 48 h. […] Supernatants were collected and centrifuged at 150 g for 5 min to remove cell debris and were kept at −20° C. before being processed for ELISA. IL-6, TNFa and MMP9 ELISA kits were purchased from BioTechne and the experiment was performed according to manufacturer's instructions. Briefly, 96-well plates were coated with capture antibodies overnight at room temperature. […] The reaction was stopped by the addition of sulphuric acid and absorbance at 450 nm was read with a plate reader. Absorbance is proportional to the concentration of analyte present in the medium, which was calculated based on a standard curve realized with recombinant IL-6, TNFa and MMP9.

For experiment [5], the system named is MMP9. In words: Direct neutralization of secreted MMP9 in cell culture supernatants, ELISA. The format is biochemical. As to conditions: isoleucine 0.05%; 3 h. Here is the method:
as §1

The subject of experiment [6] is S. aureus (ATCC®6538™). In words: Microbial challenge testing in alginogel with GOX+EPO. The format is cell-based. As to conditions: isoleucine 0.0025% (w/w). How it is done:
In a further experiment, the efficacy of antimicrobial activity enhancement by isoleucine of the GOX combination with eosinophil peroxidase (EPO) was evaluated. In view hereof, a test was set up as described in the section on ‘challenge testing’ described above with the difference that EPO was used instead of LPO.
In brief, microbial challenge testing was performed according to the method described in the European Pharmacopoeia current version chapter 5.1.3 ‘Efficacy of antimicrobial preservation’, but with adapted time points (0, 10, 20, 30, 40, 50, 60, 70 and 80 min instead of 0, 2, 7, 14 and 28 days). […] After preparation, a homogenous sample of 10 g was transferred into a 50 ml conical tube for each alginogel to be evaluated. […] Then, the 50 ml conical tubes containing the alginogel samples to be evaluated were inoculated with 100 μl of the designated inoculum and incubated at 25° C. for 80 minutes. At the start (time point 0) and after 0, 10, 20, 30, 40, 50, 60, 70 and 80 min, the number of viable microorganisms per gram product (expressed as CFU/g) was determined by transferring a sample of 0.5 g of the product into a 15 ml conical tube containing 4.5 ml of sterile diluent and applying general dilution and plate count techniques. For each combination evaluated, the absolute counts (expressed as log(CFU/g)) at each timepoint were visualized in a graph. […]

For `O=C(O)[C@@H]1CCCN1` [Proline, proline], the “GOX activity compared to reference” value in experiment [1] (enhancer 0.1 mg/ml) and in experiment [1] (enhancer 100 mg/ml) was “significant increase” in each case.

Take `CC[C@H](C)[C@H](N)C(=O)O` [Isoleucine, isoleucine]: the figures for the “additional decrease in IL-6 secretion by macrophages vs GOX+LPO (1:1) alone” value in experiment [2] (isoleucine 0.0025%), in experiment [2] (isoleucine 0.05%) and in experiment [2] (isoleucine 0.5%) were 7.6%, 20.6% and 33.6%, respectively. The “additional decrease of already secreted IL-6 (direct neutralization) vs GOX+LPO (1:1) alone” value in experiment [3] is on record as 29.4%. The entries for the “additional decrease in MMP9 secretion by macrophages vs GOX+LPO (1:1) alone” value in experiment [4] (isoleucine 0.0025%) and in experiment [4] (isoleucine 0.05%) were 12.7% and 21.5%, respectively. In addition, the “additional decrease of already secreted MMP9 (direct neutralization) vs GOX+LPO (1:1) alone” value in experiment [5] was determined as 27.1%. The “time to complete reduction of absolute S. aureus counts” value in experiment [6] was 80 min.

Source of the values: patent US20260273028A1, “PEROXIDASE COMPOSITIONS CONTAINING IMPROVED ENHANCING AGENTS” (FLEN HEALTH PHARMA NV, priority 2022, published 2026).
